Experimental data taken from publication PMC2652407 (Journal of Medicinal Chemistry, 2009).

Key:
hAdoMetDC [1] = target: T1, hAdoMetDC (Homo sapiens, UniProt P17707); type: biochemical; conditions: versus corresponding 8-H parent compound
T1 sequence (P17707 1-67 limits assumed): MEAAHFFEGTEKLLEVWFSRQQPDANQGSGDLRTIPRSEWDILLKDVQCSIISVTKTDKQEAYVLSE
T1 sequence (P17707 68-328 limits assumed): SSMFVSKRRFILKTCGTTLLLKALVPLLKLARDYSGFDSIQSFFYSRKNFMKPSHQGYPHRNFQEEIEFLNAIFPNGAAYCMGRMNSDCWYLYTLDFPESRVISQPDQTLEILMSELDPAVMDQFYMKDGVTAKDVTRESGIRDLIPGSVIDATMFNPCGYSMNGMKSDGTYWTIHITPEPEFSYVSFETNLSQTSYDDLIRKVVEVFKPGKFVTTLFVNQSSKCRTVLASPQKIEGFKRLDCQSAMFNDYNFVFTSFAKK

hAdoMetDC [2] = target: T1, hAdoMetDC; conditions: previously reported AdoMetDC inhibitor; cited from earlier work

Row | reduction in the IC50 value / increase in potency when an 8-methyl substituent was added to the adenine ring (hAdoMetDC [1]) [fold] | SMILES | Ki (hAdoMetDC [2])
1 | 3.4 | Cc1nc2c(N)ncnc2n1[C@@H]1O[C@H](CN(C)CCCCON)[C@@H](O)[C@H]1O.O=S(=O)(O)O [Compound 14d, 5′-[(4-Aminooxybutyl)methylamino]-5′-deoxy-8-methyladenosine sulfate (1.9:1 salt)] | 
2 |  | C[S+](C)C[C@H]1O[C@@H](n2cnc3c(N)ncnc32)[C@H](O)[C@@H]1O.[Cl-] [Compound 25d, 5′-Deoxy-5′-dimethylsulfonioadenosine chloride] | μM range
